Values joined by “and” are separate entries in the source; they are usually repeats but may differ in a detail not shown here. Equal entries are not always repeated.
Legend:
[1] = test system: 864 Cd Tandem RNA (c-di-GMP-II aptamer and group I ribozyme); test: Self-splicing assays of the tandem riboswitch-ribozyme; format: biochemical, Clostridium difficile 630; conditions: for Rate constant, product 3′E* (alternative GTP attack product) / Rate constant, product 5′E-3′E (spliced exons): Internally 32P-labeled RNA; for Rate constant, product GTP1 (GTP attack at 5′ SS) / Rate constant, product GTP2 (alternative GTP attack site): Unlabeled RNA, [α-32P]GTP
Description: Initial ribozyme self-splicing reaction conditions were based on those previously reported for use with a group I ribozyme from Tetrahymena thermophile and consisted of incubations at 30° C. in the presence of 50 mM HEPES (pH 7.5 at 23° C.), 100 mM (NH4)2SO4, 5 mM MgCl2, and 0.1 mM GTP. At concentrations of MgCl2 above 10 mM and temperatures at 37° C. or above, the difference between the ligated exons and alternate GTP attack site products became less pronounced. A range of ligand concentrations were tested for both GTP (5 μM to 1 mM) and cyclic di-GMP ([…] to 100 μM) to determine the optimal amounts for splicing activity, based on probable biological relevance and degree of allosteric control.
Splicing assays for wild-type and mutant RNAs were carried out for 30 minutes (unless otherwise noted) under the conditions described above, with the addition of 50 μM GTP and/or 10 μM c-di-GMP when stated. Final RNA concentrations were lower than 1 μM for all reactions. Reaction mixtures containing unlabeled RNA were supplemented with 1 μCi/μL [α-^32P]GTP. Products were separated by denaturing 6% PAGE. Gels were dried and products were subsequently imaged using a PhosphorImager (Molecular Dynamics).
Aliquots from splicing reactions conducted with either 5′ or internally ^32P-labeled 864 Cd Tandem RNAs were removed at various incubation times and the reactions were terminated by the addition of stop buffer (see below). Similarly, time course experiments were conducted with unlabeled 864 Cd Tandem RNAs supplemented with ˜50 nCi/μL [α-^32P]GTP. Reactions were initiated by combining a solution containing RNA only (˜100 pM 5′ ^32P-labeled RNA, ˜1 μM internally ^32P-labeled RNA, or ˜10 nM unlabeled RNA) with a solution containing the buffer and any ligands to yield a final concentration of contents as described above. The two mixtures were briefly pre-heated at 30° C. and the reaction was initiated by the transfer of buffer/ligand solution to the RNA solution. The zero time point was removed prior to initiation of the reaction and immediately placed into an equivalent volume of stop buffer (8 M urea, 20% w/v sucrose, 0.1% SDS, 0.05% bromophenol blue, 0.05% xylene cyanol FF, 0.09 M Tris base, 0.09 M borate, 1 mM EDTA [pH 8.0]). Likewise, subsequent aliquots were removed at each time point and quenched by placement in stop buffer. Reaction products were separated as described above and dried gels were imaged using a PhosphorImager (Molecular Dynamics).
For precursor RNAs that were initially ^32P-labeled, rate constants for product formation were established by determining the yield of specific products relative to the unprocessed or misprocessed RNAs. First, an average background for each lane was calculated and subtracted from intensities of individual bands or lanes. Second, product band intensities were compared to the total intensity of their corresponding lane, which corrected for any differences due to sample loading. Third, the band intensity at time zero was subtracted from the corresponding bands of all other time points. Yields of products from assays conducted with internally ^32P-labeled RNAs were also corrected for the number of uridine nucleotides in the product RNA versus the total number of uridine nucleotides in the precursor RNA (252 nucleotides). This correction allows for direct comparison of the number of molecules present in each product band. The total fraction of RNA processed at 120 minutes is ˜40%. […] This extent of RNA misfolding, particularly in the absense of possible protein factors, is also typical of other large functional RNAs. Thus, at 120 minutes, approximately 80% of the total reactable RNA has undergone processing. The fractions of RNA processed for the internally ^32P-labeled RNA was adjusted to reflect this value of 80% at 120 minutes.
For splicing assays conducted using unlabeled precursor RNAs, determination of rate constants were conducted differently. […]

[2] = test system: ompR riboswitch (c-di-GMP-II, ompR 5′ UTR); test: Single-round transcription termination assay; format: biochemical, C. difficile; conditions: WT ompR construct, c-di-GMP 50 μM
Description: Single round transcription assays were conducted using a method (FIG. 7) adapted as described previously (data not shown) with the following modifications. The elongation mixture contained 50 μM UTP, and 150 μM each of ATP, GTP and CTP. Heparin was added at 0.1 mg/mL at initiation of elongation. For the reactions containing the second messenger, c-di-GMP was added to a final concentration of 50 μM.
A template DNA harboring the 5′ UTR of the ompR gene of C. difficile and its native promoter was prepared by PCR (see Table 4). The predicted intrinsic transcription termination site is 40 nucleotides shorter than the terminus of the template DNA. The ompR riboswitch is predicted to be an ‘ON’ switch based on its architecture. Therefore the full length transcript was expected to undergo decreased termination in the presence of c-di-GMP. Mutant templates M2 and M3 were constructed by PCR and confirmed by sequencing (see Table 4). A template DNA for production of a simulated intrinsic transcription termination product was generated by PCR and was used as a marker during PAGE analysis of transcription products.
Further evidence of aptamer-controlled transcription termination was observed by conducting single-round transcription assays in vitro using another C. difficile c-di-GMP-II construct from the ompR mRNA (FIG. 2C). […]

[3] = GTP + and c-di-GMP +, first 15 minutes

| Compound | EC50 ([1]; 5′ 32P-labeled 864 Cd Tandem RNA, 120 minutes, read-out: S50, concentration of c-di-GMP at which 5′E-3′E is half-maximally processed) | ratio of alternative attack product (3′E*) to spliced exons (5′E-3′E) ([1]; 120 minutes, c-di-GMP present) | increase in initial rate constant for GTP attack at the 5′ SS ([1]; GTP and c-di-GMP versus only GTP, unlabeled RNA, first 15 minutes) [fold] | Rate constant, product 3′E* (alternative GTP attack product) ([1]; GTP + and c-di-GMP +) [min⁻¹] | Rate constant, product 5′E-3′E (spliced exons) ([1]; GTP + and c-di-GMP +) | Rate constant, product GTP1 (GTP attack at 5′ SS) [1, 3] [min⁻¹] | Rate constant, product GTP2 (alternative GTP attack site) [1, 3] [min⁻¹] | increase in the production of spliced exons ([1]; presence versus absence of c-di-GMP, 120 minutes) [fold] | increase in the initial rate constant for spliced product formation ([1]; presence versus absence of c-di-GMP, internally labeled RNA) [fold] | production of full-length RNA transcript (transcription termination control) [2] | ratio of alternative attack product (3′E*) to spliced exons (5′E-3′E) ([1]; 120 minutes, absence of c-di-GMP (GTP only)) | Rate constant, product 3′E* (alternative GTP attack product) ([1]; GTP + and c-di-GMP −) [min⁻¹] | Rate constant, product 5′E-3′E (spliced exons) ([1]; GTP + and c-di-GMP −) | Rate constant, product GTP1 (GTP attack at 5′ SS) ([1]; GTP + and c-di-GMP −) [min⁻¹] | Rate constant, product GTP2 (alternative GTP attack site) ([1]; GTP + and c-di-GMP −) [min⁻¹] |
| --- | --- | --- | --- | --- | --- | --- | --- | --- | --- | --- | --- | --- | --- | --- | --- |
| Nc1nc2c(ncn2[C@@H]2O[C@@H]3COP(=O)(O)O[C@H]4[C@@H](O)[C@H](n5cnc6c(=O)[nH]c(N)nc65)O[C@@H]4COP(=O)(O)O[C@H]3[C@H]2O)c(=O)[nH]1 [c-di-GMP, cyclic di-GMP] | ~30 nM and 30 nM | near equal amounts | ~13 | 0.018 | 1.3×10^−2 min^−1 | 0.023 | 0.023 | ~8 | 12 | robust production of full-length RNA transcript only when c-di-GMP is added | – | – | – | – | – |
| Nc1nc2c(ncn2[C@@H]2O[C@H](COP(=O)(O)OP(=O)(O)OP(=O)(O)O)[C@@H](O)[C@H]2O)c(=O)[nH]1 [GTP] | – | – | – | – | – | – | – | – | – | – | more than 20 fold | 0.024 | 1.1×10^−3 min^−1 | 0.0018 | 0.027 |

Source: patent US20130143955A1, “Cyclic di-GMP-II Riboswitches, Motifs, and Compounds, and Methods for Their Use” (priority 2010, published 2013)
